Non-standard residues stand in square brackets, D forms with d. Residues, ends and D or L forms follow the SMILES beside them. Aib = CC(C)(N)C(=O)O
Experiments:
[1] = target: T1, FPR1 (Homo sapiens, UniProt P21462); assay: Competition with FITC-fMLF binding to RBL-2H3/ETFR cells stably expressing FPR1; conditions: 100 nM pre-incubation 60 min at 4° C., then 10 nM FITC-fMLF
T1 construct: expressed in transfected cells; host or cells: rat basophilic leukaemia RBL-2H3/ETFR cells
T1 sequence (P21462 1-350): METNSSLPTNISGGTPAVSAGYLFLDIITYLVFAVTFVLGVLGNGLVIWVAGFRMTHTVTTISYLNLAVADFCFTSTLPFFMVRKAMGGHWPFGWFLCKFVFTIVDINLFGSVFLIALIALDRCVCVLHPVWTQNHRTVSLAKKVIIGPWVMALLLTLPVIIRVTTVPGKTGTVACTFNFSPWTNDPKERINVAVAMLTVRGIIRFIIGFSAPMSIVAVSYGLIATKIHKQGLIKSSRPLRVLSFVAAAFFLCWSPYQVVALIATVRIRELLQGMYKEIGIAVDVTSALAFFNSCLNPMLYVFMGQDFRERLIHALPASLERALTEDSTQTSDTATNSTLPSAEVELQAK
Protocol: Cell-associated fluorescence was measured using a fluorescence plate reader. The results are depicted in FIG. 3. […] To evaluate the effect of RI-3 on agonist-dependent FPR1 internalization, binding experiments were performed at 37° C. and cells were visualized using a Zeiss 510 Meta LSM microscope. Original magnifications: 630×. Scale bar: 10 μm.

[2] = tested on: HT1080 cells; assay: FBS-directed matrigel invasion of HT1080 cells (xCELLigence RTCA); format: cell-based, human
From the text: FIG. 5 Peptides RI-1, RI-2, RI-3, RI-4 and RI-5 reduced by 33%, 35%, 81%, 52% and 11%, respectively, the extent of FBS-directed matrigel invasion of HT1080 cells (A), as assessed in real time using the xCELLigence RTCA technology. The inhibitory effect of RI-3 is dose-dependent (B) (Example 5).
Cell migration is a prerequisite for cancer invasion. Therefore, we investigated whether retro-inverso peptides prevent matrigel invasion of HT1080 cells using the xCELLigence RTCA technology. Cells were seeded on polymerized matrigel and lower chambers were filled with DMEM (CTRL), growth medium (None) or growth medium with 10 nM the indicated peptides (A), or with increasing concentrations of RI-3 (B). Matrigel invasion was monitored in real time for 20 (A) or 18 (B) hrs at 37° C., 5% CO2 and the impedance values were automatically monitored as changes in cell index. Data represent means±SD from quadruplicate experiments, each representative of 2 replicates. HT1080 cells were able to cross matrigel in the presence of 10% FBS. All retro-inverso peptides caused a reduction of FBS-directed cell migration although to different extent.

[3] = tested on: HT1080 cells; assay: Proliferation of HT1080 cells (xCELLigence); format: cell-based, human; conditions: 10 μM, 2-26 time range
Protocol: Cell proliferation of HT1080 cells was monitored for 75 hrs using the xCELLigence technology. Cells (1×10^3 cells/well) were seeded on E-plates in growth medium (None) or growth medium plus 10 μM RI-3 and allowed to proliferate at 37° C., 5% CO2. Medium was replaced every 24 hrs (arrows). Impedance value of each well was automatically monitored and expressed as cell index. Data represent mean±SD from a quadruplicate experiment representative of 2 replicates (A). […] In the 2-26 time range the doubling times of cells exposed to diluents or to RI-3 were 16.3828+/−0.22 hrs and 17.7648+/−0.27 hrs, respectively (B).

[4] = Stability in bovine serum, read out by HT1080 migration (xCELLigence); format: in vitro ADME; conditions: 10^−3 mol/L in serum 18 hrs at 37° C., then tested at 10 nM
Protocol: FIG. 7 The retro-inverso peptide RI-3 is stable when pre-incubated in bovine (A) or human serum (B) as assessed in real time using the xCELLigence technology (A) or in Boyden chambers (B) (Example 7).
The stability of the retro-inverso peptide RI-3 in bovine and human serum was investigated through incubation of the peptide at a 10^−3 mol/L in serum for 18 hrs at 37° C. HT1080 cells were allowed to migrate toward DMEM (CTRL), 10% FBS (None), 10% FBS plus 10 nM RI-3 or 10% FBS with 10 nM RI-3 pre-incubated with bovine serum and the impedance values were automatically monitored in real time by the xCELLigence system for 18 hrs and expressed as cell index. Data represent the means from a quadruplicate experiment representative of 2 replicates. […] The stability of RI-3 in human serum was further investigated in cell invasion experiments performed in Boyden chambers. HT1080 cells were allowed to invade matrigel for 6 hrs, toward DMEM (CTRL), 10% FBS (None), 10% FBS plus 10 nM RI-3 or 10% FBS with 10 nM RI-3 pre-incubated with human serum. For quantitative analysis of cell invasion, the basal value assessed in the absence of FBS (CTRL) was taken as 100% and all values were reported relative to that. Data are the means±SD from a triplicate experiment. *Statistical significance was calculated against None with p<0.005. […]

[5] = tested on: human osteosarcoma Saos-2; assay: Matrigel invasion (xCELLigence RTCA), Saos-2; format: cell-based; conditions: 10 nM, 20 hrs
Protocol: (§1) FIG. 8 At the concentration of 10 nM the retro-inverso peptide RI-3 prevents matrigel invasion of tumor cells from human osteosarcoma Saos-2 (A), chondrosarcoma Sarc (B), melanoma A375 (C), metastatic melanoma A375M6 (D), ovarian carcinoma SKOV-3 cells (E), or primary ovarian cancer cells derived from a tumor excision (OV-53) (F), as monitored in real-time for 20 hr as changes in cell index by the xCELLigence RTCA system (Example 8).
(§2) To investigate the ability of RI-3 to prevents matrigel invasion of tumor cells form different tissue origins, human osteosarcoma Saos-2 (A), chondrosarcoma Sarc (B) melanoma A375 (C), metastatic melanoma A375M6 (D), ovarian carcinoma SKOV-3 cells (E) or primary ovarian cancer cells derived from a tumor excision (OV-53) (F) were seeded on polymerized matrigel and allowed to invade matrigel in the absence (None) or in the presence of 10 nM RI-3. Cell invasion was monitored in real-time for 20 hrs as changes in cell index by the xCELLigence RTCA system. Data represent mean±SD from quadruplicate experiments. All cell lines were able to cross matrigel, although to a different extent. In all case RI-3 reduced matrigel invasion by about 30%, 31%, 64%, 57%, 53% and 68%, of Saos-2, Sarc, A375, A375M6, SKOV-3 and OV-53 cells, respectively.

[6] = tested on: chondrosarcoma Sarc; assay: Matrigel invasion (xCELLigence RTCA), Sarc; format: cell-based, human; conditions: 10 nM, 20 hrs
Protocol: as §1, §2

[7] = tested on: melanoma A375; assay: Matrigel invasion (xCELLigence RTCA), A375; format: cell-based, human; conditions: 10 nM, 20 hrs
Protocol: as §1, §2

[8] = tested on: ovarian carcinoma SKOV-3 cells; assay: Matrigel invasion (xCELLigence RTCA), SKOV-3; format: cell-based, human; conditions: 10 nM, 20 hrs
Protocol: as §1, §2

[9] = tested on: primary ovarian cancer cells derived from a tumor excision (OV-53); assay: Matrigel invasion (xCELLigence RTCA), OV-53; format: cell-based, human; conditions: 10 nM, 20 hrs
Protocol: as §1, §2

CC(=O)N[C@H](Cc1ccc(O)cc1)C(=O)N[C@H](CCCNC(=N)N)C(=O)NC(C)(C)C(=O)N[C@H](CCCNC(=N)N)C(N)=O [RI-3, Ac-(D)-Tyr-(D)-Arg-Aib-(D)-Arg-NH2] (Ac-[dY][dR][Aib][dR]-NH2)
inhibition of binding of fluorescent agonist (FITC-fMLF) to RBL-2H3/ETFR cells [1]: to a similar extent as compared to fMLF
reduction of the extent of FBS-directed cell invasion (matrigel) ([2]; 10 nM peptide, growth medium, 20 hrs): 81%
dose dependence of the inhibition of matrigel invasion ([2]; increasing concentrations, 18 hrs): maximal effect being reached in the nanomolar range
doubling time during exponential growth [3]: 17.7648 ± 0.27 h
stability after pre-incubation in bovine serum [4]: stable to enzymatic digestion
reduction of matrigel invasion [5]: about 30%
reduction of matrigel invasion [6]: ~31%
reduction of matrigel invasion [7]: ~64%
reduction of matrigel invasion [8]: ~53%
reduction of matrigel invasion [9]: ~68%
